Legend:
[1] = tested on: patients with lung diseases including COPD; assay: Comparison of inhaled salts of pyruvate, 5 ml of 0.5 mM solution (Table I)
[2] = tested on: patients with Allergic Rhinitis other lung diseases; assay: Two-year log of 367 patients using the 20 mM sodium pyruvate nasal spray (Table XIII); assay type: in vivo, human; details: healthy patients with no underlying diseases; 20 mm in at least 0.9% sodium chloride
Experimental: Table XIII. 367 patients over a two-year period. Each patient was provided with a log page to record the effect of inhaled 20 mM sodium pyruvate surfactant enhancer formula. The FDA has recommended that we do a phase three clinical for Allergic Rhinitis for patients where steroids are counter indicated i.e. Children, pregnant women and diabetics. Percentage measurements in patients with Allergic Rhinitis other lung diseases. 20 mM sodium pyruvate formula in 0.9% saline […] was inhaled. Overall rating was 1-10 with 1 being the most negative and 10 being the best result. The increase in nasal and lung surfactants and nasal and lung nitric oxide inhibited the docking and adhesion of viruses in the patients listed below with especially in patients with diabetes or hypoxemia. All these viruses including coronavirus, the flu (influenza A or B) and rhinovirus were unable to dock on the ACE2 type receptor and reduced the rate, severity, duration and spread of the viruses.

[3] = tested on: Asthmatic and COPD patients; assay: Phase I/II clinical trials of sodium pyruvate in saline by inhalation; assay type: in vivo, human
[4] = tested on: isolated perfused rat lungs; assay: Incorporation of [2-(14)C] labeled pyruvate into lung surfactants; details: inhalation studies, without calcium, phosphate and magnesium
[5] = tested on: patients with or without lung damage; assay: Controlled inhalation studies of 20 mM sodium pyruvate in saline; assay type: in vivo, human
Experimental: Sodium chloride is mainly used as nasal or lung moisturizer. […] They produce no change to FEV-1 or SaO2 measurements. It must be noted that there is a difference between people who have transient hypoxemia vs. one that has permanent hypoxemia. The patients respond differently to the inhalation of 20 mM sodium pyruvate in saline by itself without calcium, phosphate and magnesium. Sodium pyruvate formulations both given orally or by inhalation will increase SaO2 levels in people without lung injury to the alveoli structure especially the mitochondria that can synthesis the phospholipids needed for oxygen exchange and uptake. Transient hypoxemia is a self-correcting effect. It occurs in over exercising, mountain climbing etc. […] In patients with infections, i.e. CF and allergic Rhinitis, Nitric Oxide increase by over 400% over base line measurements with the use of the sodium pyruvate, calcium, phosphate and magnesium formula, needed to fight infections and lung cancer (see table IV).

[6] = tested on: patients suffering from severe lung injury or mitochondrial damage or COPD and Hypoxemia; assay: Two months nebulized treatment, lung capacity; assay type: in vivo, human; details: phosphate and magnesium
From the text: Total lung capacity is the volume in the lungs at maximal inflation, the sum of VC and RV. RV is the residual volume of air remaining in the lungs after a maximal exhalation. VC vital capacity is the volume of air breath out after the deepest inhalation. Vital capacity in males is 4.8 liters and in women 3.8 liters. Slow vital capacity (SVC) is the maximum volume of air that can be exhaled slowly after slow maximum inhalation. Three male patients suffering from severe lung injury or mitochondrial damage or COPD and Hypoxemia were treated as described below for two (2) months. […] In fact, dramatic results were observed within two (2) weeks.
[…] The sterile pyruvate 15 solution is placed into a “Pulmo Aid” nebulizer manufactured by DeVilbiss Co., Somerset, Pa. 15501-0635. The sterile pyruvate solution is nebulized by the Pulmo Aid device fitted with a disposable nebulizer and inhaled by the patient. The patient inhales normally from the Pulmo Aid nebulizer until all of the solution has been nebulized and inhaled. This inhalation step typically takes about ten (10) to twenty 20 (20) minutes. The patients were treated with this inhalation therapy periodically. Initially, treatments are about four (4) times a day at about six (6) hour intervals. Treatments were reduced to three (3) times a day at about eight (8) hour intervals after 20 days of therapy. […]

[7] = 5 ml of 0.5 mM solution, inhaled
[8] = 5 ml of the 0.5 mM solution in saline

## CC(=O)C(=O)[O-].[Na+] [Sodium, sodium pyruvate]
[1]; 5 ml of 0.5 mM solution in physiological saline, inhaled
  Increased in FEV-1% lung function: 13.0%
[1]; [7]
  Irritation: none
  Percentage Increase in SaO2 over baseline: 0.5%
  Percentage decrease or increase of Nitric Oxide over baseline: −19.0%
  Relief of congestion, coughing and lung tightness: 5
[1]; 5 ml of 0.5 mM solution, 1 most negative, 10 best
  Overall Rating 1-10: 8
[1]; 5 mls of a 0.5 mM pyruvate inhalation solution in COPD and asthmatic patients
  FEV1: ≥ 12%
[2]
  amount of flu or colds reduced: 52%
  duration of the infection symptoms in days reduced: 56%
[3]; [8]
  increasing FEV1 values: over 12%
  reducing nitric oxide: 19.2%
[3]; higher concentrations 1.5 mM or 5.0 mM in saline
  FEV1 values: did not increase FEV1 values
[3]; solutions of 1.5 to 5 mM
  increase nitric oxide levels: 19%
[4]
  incorporation into synthesized phospholipids: not incorporated into synthesized phospholipids
[5]; Patients with lung damage, like in smokers, 20 mM without calcium, phosphate and magnesium
  SaO2 levels: did not show an increase SaO2 levels
[5]; patients with no lung injuries or disease, after exercising, 20 mM in saline
  increase of SaO2, average: 3%
[6]; one of the three patients, end of the two months, without calcium
  improvement in SaO2 levels: 3%
[6]; same three patients, formulas without the calcium
  improvement in lung functions, especially total lung capacity: no or little improvement in lung functions
